Assay results reported in patent publication US20210115104A1, “AMYLIN ANALOGUES” (Zealand Pharma A/S, priority 2015, published 2021).
*1 amine or outer side, *2 acyl side, *3 side chain or, on linkers, in order; H or OH if unused. Where a SMILES comes first, the peptide text is derived from it. Bridges are numbered along the chain shown (N, C = ends). [ ]: non-standard residue; d: D form. The star is where a group is joined. C20 diacid = O=C(O)CCCCCCCCCCCCCCCCCCC(=O)*; γGlu = O=C(O)[C@H](CCC(=O)[*:2])N[*:1]; Hyp = O=C(O)[C@@H]1C[C@@H](O)CN1; NMeI = CC[C@H](C)[C@H](NC)C(=O)O; Aad = N[C@@H](CCCC(=O)O)C(=O)O; Sar = CNCC(=O)O

Tests used:
[1] = target: T1, human calcitonin receptor (hCTR2) (Homo sapiens, UniProt P30988); test: hCTR2 cAMP assay (AlphaScreen) in COS7 cells; format: cell-based; details: cAMP induction, COS7 cells expressing hCTR2; Table 1; read-out: hCTR2 EC50
T1 construct: expressed in transfected cells
T1 sequence (P30988 25-474): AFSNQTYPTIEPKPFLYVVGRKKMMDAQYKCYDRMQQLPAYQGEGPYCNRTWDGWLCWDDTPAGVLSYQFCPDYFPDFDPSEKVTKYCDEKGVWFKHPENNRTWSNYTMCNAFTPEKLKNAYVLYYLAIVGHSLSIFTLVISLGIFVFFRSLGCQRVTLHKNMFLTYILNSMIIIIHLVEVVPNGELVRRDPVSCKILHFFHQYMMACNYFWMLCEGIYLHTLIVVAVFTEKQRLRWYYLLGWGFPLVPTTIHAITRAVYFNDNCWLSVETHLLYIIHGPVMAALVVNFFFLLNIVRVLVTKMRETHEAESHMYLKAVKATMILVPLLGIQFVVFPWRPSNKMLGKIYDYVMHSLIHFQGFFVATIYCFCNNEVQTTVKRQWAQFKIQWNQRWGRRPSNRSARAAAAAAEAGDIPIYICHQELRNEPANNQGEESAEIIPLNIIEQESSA
Summary of the method: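 Stable hCTR2 clone in RAMP-naïve COS7 cells stimulated 15 min at 37 °C with increasing peptide concentrations in Tyrode buffer pH 7.4 containing IBMX and 0.1% casein. cAMP in lysates measured by AlphaScreen; EC50 from 4-parameter logistic fit.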

[2] = Assessment of chemical stability (RP-HPLC normalized purity); format: physicochemical; details: 7 days, 40° C., Table 1; for Normalized purity after 7 days, 40° C., pH 4: pH 4, 0.2 mg/ml; for Normalized purity after 7 days, 40° C., pH 7.5: pH 7.5, 0.2 mg/ml; for Normalized purity after 7 days, 40° C., pH 9: pH 9, 0.2 mg/ml; for Normalized purity after 7 days, 40° C., pH 6: pH 6, 0.2 mg/ml
Summary of the method: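 Peptides at 0.2 mg/ml in water adjusted to pH 4, 6, 7.5 or 9, incubated at 40° C for 7 days. Main-peak area-% by RP-HPLC (C8 ammonium formate or C18 TFA gradient, UV 220 nm), normalized to T=0 as 100.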

[3] = target: T2, human amylin receptor 3 (hAMYR3), hCTR2 co-expressed with hRAMP3 (Homo sapiens, UniProt O60896+P30988); test: hAMYR3 cAMP assay (AlphaScreen) in COS7 cells; format: cell-based; details: cAMP induction, COS7 cells expressing hAMYR3; Table 1; read-out: hAMYR3 EC50
T2 construct: expressed in transfected cells
T2 sequence (P30988 25-474): T1 sequence (P30988 25-474)
T2 sequence (O60896 24-148 partner): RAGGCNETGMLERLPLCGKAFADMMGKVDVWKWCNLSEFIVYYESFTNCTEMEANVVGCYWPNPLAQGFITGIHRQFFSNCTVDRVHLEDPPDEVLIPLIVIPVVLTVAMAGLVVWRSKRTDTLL
Summary of the method: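 Stable COS7 clone co-expressing hCTR2 and hRAMP3 was exposed to increasing peptide concentrations in Tyrode buffer (pH 7.4) with 100 µM IBMX and 0.1% casein for 15 min at 37 °C. Lysate cAMP was measured by AlphaScreen; EC50 came from 4-parameter logistic fitting.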

EC50 [1] [nM]	Normalized purity after 7 days, 40° C., pH 4 [2]	Normalized purity after 7 days, 40° C., pH 7.5 [2]	Normalized purity after 7 days, 40° C., pH 9 [2]	EC50 [3] [nM]	Normalized purity after 7 days, 40° C., pH 6 [2]	SMILES
0.09	A (A = >90%)	B (B = 70-90%)	B (B = 70-90%)	0.12		CC[C@H](C)[C@@H](C(=O)N[C@@H](CC(C)C)C(=O)N[C@@H](CO)C(=O)N[C@@H](CO)C(=O)N[C@H](C(=O)N[C@@H](CCC(=O)O)C(=O)N[C@H](C(=O)NCC(=O)N[C@@H](CO)C(=O)N[C@@H](CO)C(=O)N[C@H](C(=O)N1C[C@H](O)C[C@H]1C(N)=O)[C@@H](C)O)C(C)C)[C@@H](C)O)N(C)C(=O)[C@H](C)NC(=O)CN(C)C(=O)[C@H](Cc1ccccc1)NC(=O)[C@H](CO)NC(=O)[C@H](CO)NC(=O)[C@H](CCCNC(=N)N)NC(=O)[C@H](CC(N)=O)NC(=O)[C@H](CC(C)C)NC(=O)[C@H](Cc1ccccc1)NC(=O)[C@H](Cc1c[nH]cn1)NC(=O)[C@H](C)NC(=O)[C@H](CC(C)C)NC(=O)[C@H](CCCNC(=N)N)NC(=O)[C@H](CCC(=O)O)NC(=O)[C@@H](NC(=O)[C@H](C)NC(=O)[C@@H]1CSSC[C@H](NC(=O)[C@H](CCCNC(=N)N)NC(=O)CC[C@H](NC(=O)CCCCCCCCCCCCCCCCCCC(=O)O)C(=O)O)C(=O)NCC(=O)N[C@@H]([C@@H](C)O)C(=O)N[C@@H](C)C(=O)N[C@@H]([C@@H](C)O)C(=O)N1)[C@@H](C)O [Compound 29, [19CD]-isoGlu-R-C( )-GTAT-C( )-ATERLAHFLNRSSF-Gly(Me)-A-Ile(Me)-LSSTEVGSST-Hyp-NH2] ({C20 diacid-γGlu}-RCGTATCATERLAHFLNRSSF[Sar]A[NMeI]LSSTEVGSST[Hyp]-NH2; disulfide 2-7)
0.15	B (B = 70-90%)	A (A = >90%)	A (A = >90%)	0.34	A (A = >90%)	CC[C@H](C)[C@@H](C(=O)N[C@@H](CC(C)C)C(=O)N[C@@H](CO)C(=O)N[C@@H](CO)C(=O)N[C@H](C(=O)N[C@@H](CCC(=O)O)C(=O)N[C@H](C(=O)NCC(=O)N[C@@H](CO)C(=O)N[C@@H](CO)C(=O)N[C@H](C(=O)N1C[C@H](O)C[C@H]1C(N)=O)[C@@H](C)O)C(C)C)[C@@H](C)O)N(C)C(=O)[C@H](C)NC(=O)CN(C)C(=O)[C@H](Cc1ccccc1)NC(=O)[C@H](CO)NC(=O)[C@H](CO)NC(=O)[C@H](CCCNC(=N)N)NC(=O)[C@@H](NC(=O)[C@H](CC(C)C)NC(=O)[C@H](Cc1ccccc1)NC(=O)[C@H](CC(=O)O)NC(=O)[C@H](C)NC(=O)[C@H](CC(C)C)NC(=O)[C@H](CCCNC(=N)N)NC(=O)[C@H](CCC(=O)O)NC(=O)[C@@H](NC(=O)[C@H](C)NC(=O)[C@@H]1CSSC[C@H](NC(=O)[C@H](CCCNC(=N)N)NC(=O)CC[C@H](NC(=O)CCCCCCCCCCCCCCCCCCC(=O)O)C(=O)O)C(=O)NCC(=O)N[C@@H]([C@@H](C)O)C(=O)N[C@@H](C)C(=O)N[C@@H]([C@@H](C)O)C(=O)N1)[C@@H](C)O)[C@@H](C)O [Compound 41, [19CD]-isoGlu-R-C( )-GTAT-C( )-ATERLADFLTRSSF-Gly(Me)-A-Ile(Me)-LSSTEVGSST-Hyp-NH2] ({C20 diacid-γGlu}-RCGTATCATERLADFLTRSSF[Sar]A[NMeI]LSSTEVGSST[Hyp]-NH2; disulfide 2-7)
0.22	A (A = >90%)	A (A = >90%)	A (A = >90%)	0.35	A (A = >90%)	CC[C@H](C)[C@@H](C(=O)N[C@@H](CC(C)C)C(=O)N[C@@H](CO)C(=O)N[C@@H](CO)C(=O)N[C@H](C(=O)N[C@@H](CCC(=O)O)C(=O)N[C@H](C(=O)NCC(=O)N[C@@H](CO)C(=O)N[C@@H](CO)C(=O)N[C@H](C(=O)N1C[C@H](O)C[C@H]1C(N)=O)[C@@H](C)O)C(C)C)[C@@H](C)O)N(C)C(=O)[C@H](C)NC(=O)CN(C)C(=O)[C@H](Cc1ccccc1)NC(=O)[C@H](CO)NC(=O)[C@H](CO)NC(=O)[C@H](CCCNC(=N)N)NC(=O)[C@@H](NC(=O)[C@H](CC(C)C)NC(=O)[C@H](Cc1ccccc1)NC(=O)[C@H](CCCC(=O)O)NC(=O)[C@H](C)NC(=O)[C@H](CC(C)C)NC(=O)[C@H](CCCNC(=N)N)NC(=O)[C@H](CCC(=O)O)NC(=O)[C@@H](NC(=O)[C@H](C)NC(=O)[C@@H]1CSSC[C@H](NC(=O)[C@H](CCCNC(=N)N)NC(=O)CC[C@H](NC(=O)CCCCCCCCCCCCCCCCCCC(=O)O)C(=O)O)C(=O)NCC(=O)N[C@@H]([C@@H](C)O)C(=O)N[C@@H](C)C(=O)N[C@@H]([C@@H](C)O)C(=O)N1)[C@@H](C)O)[C@@H](C)O [Compound 43, [19CD]-isoGlu-R-C( )-GTAT-C( )-ATERLA-Aad-FLTRSSF-Gly(Me)-A-Ile(Me)-LSSTEVGSST-Hyp-NH2] ({C20 diacid-γGlu}-RCGTATCATERLA[Aad]FLTRSSF[Sar]A[NMeI]LSSTEVGSST[Hyp]-NH2; disulfide 2-7)
0.2				0.13		CC[C@H](C)[C@@H](C(=O)N[C@@H](CC(C)C)C(=O)N[C@@H](CO)C(=O)N[C@@H](CO)C(=O)N[C@H](C(=O)N[C@@H](CCC(=O)O)C(=O)N[C@H](C(=O)NCC(=O)N[C@@H](CO)C(=O)N[C@@H](CO)C(=O)N[C@H](C(=O)N1C[C@H](O)C[C@H]1C(N)=O)[C@@H](C)O)C(C)C)[C@@H](C)O)N(C)C(=O)[C@H](C)NC(=O)CN(C)C(=O)[C@H](Cc1ccccc1)NC(=O)[C@H](CO)NC(=O)[C@H](CO)NC(=O)[C@H](CCCNC(=N)N)NC(=O)[C@H](CCC(N)=O)NC(=O)[C@H](CC(C)C)NC(=O)[C@H](Cc1ccccc1)NC(=O)[C@H](CCCC(=O)O)NC(=O)[C@H](C)NC(=O)[C@H](CC(C)C)NC(=O)[C@H](CCCNC(=N)N)NC(=O)[C@H](CCC(N)=O)NC(=O)[C@@H](NC(=O)[C@H](C)NC(=O)[C@@H]1CSSC[C@H](NC(=O)[C@H](CCCNC(=N)N)NC(=O)CC[C@H](NC(=O)CCCCCCCCCCCCCCCCCCC(=O)O)C(=O)O)C(=O)N[C@@H](CC(N)=O)C(=O)N[C@@H]([C@@H](C)O)C(=O)N[C@@H](C)C(=O)N[C@@H]([C@@H](C)O)C(=O)N1)[C@@H](C)O [Compound 87, [19CD]-isoGlu-R-C( )-NTAT-C( )-ATQRLA-Aad-FLQRSSF-Gly(Me)-A-Ile(Me)-LSSTEVGSST-Hyp-NH2] ({C20 diacid-γGlu}-RCNTATCATQRLA[Aad]FLQRSSF[Sar]A[NMeI]LSSTEVGSST[Hyp]-NH2; disulfide 2-7)
